From publication PMC4452637, “Identification of positron emission tomography (PET) tracer candidates by prediction of the target-bound fraction in the brain” (EJNMMI Research, 2014)
pKd: −log10 of the molar value.

What was measured:
[1] = biological target: 5HT2a; parameters: method as in ref 7 (Additional file 1); conditions: literature value; ref 7 (Additional file 1); cited from earlier work
[2] = biological target: D1; parameters: method as in ref 52, 53 (Additional file 1); conditions: literature value; 53 (Additional file 1); cited from earlier work
[3] = tested on: GABA; conditions: non-functioning tracer: corresponds to arbitrarily assigned low ftb 0.09, not from PET data; blank in Table S1
[4] = biological target: nAChr a4b2; parameters: method as in ref 2 (Additional file 1); conditions: literature value; ref 2 (Additional file 1); cited from earlier work
[5] = biological target: 5HT1a; parameters: method as in ref 50 (Additional file 1); conditions: literature value; ref 50 (Additional file 1); cited from earlier work
[6] = biological target: Sigma; parameters: method as in ref 77 (Additional file 1); conditions: literature value; ref 77 (Additional file 1); cited from earlier work
[7] = biological target: 5HT1b; parameters: method as in ref 10 (Additional file 1); conditions: literature value; ref 10 (Additional file 1); cited from earlier work
[8] = parameters: method as in ref 10 (a number printed in a supplementary file, which may have a reference list of its own: not looked up in the article's list); conditions: unbound fraction in homogenized brain tissue, reported; cited from earlier work
[9] = Unbound fraction in brain homogenate (fu,brain); Vu,brain calculated from it with pH-partition model; conditions: calculated from reported fu,brain and tracer pKa with pH-partition model (tracers with fu,brain tabulated, footnote h of Table S1)
Method: The unbound volume of distribution in the brain (Vu,brain) describing the extent of non-specific partitioning was determined for 31 tracers using a previously described high-throughput brain slice method [11].

[10] = tested on: Sigma; test: PET imaging of specific target binding (BPND, tracer functionality); assay type: in vivo; conditions: non-functioning tracer: corresponds to arbitrarily assigned low ftb 0.09, not from PET data; blank in Table S1
[11] = biological target: D2/D3; parameters: method as in ref 59 (Additional file 1); conditions: literature value; ref 59 (Additional file 1); cited from earlier work

With `O=C(c1ccc(F)cc1)C1CCN(CCn2c(=S)[nH]c3ccccc3c2=O)CC1` [[^18 F]Altanserin] as the compound, how does the pKd [1] read?
Its pKd is 9.49.

With `CN1CCc2cc(Cl)c(O)cc2[C@@H](c2cccc3ccoc23)C1` [[^11C]NNC112] as the compound, how does the pKd [2] read?
The pKd was 9.74.

With `[11CH3]N1C(=O)CN=C(c2ccccc2)c2cc(Cl)ccc21` [[^11C]Diazepam] as the compound, how does the “BP ND” value [3] read?
Its value is 0.1.

With `Fc1ncccc1OC[C@@H]1CCN1` [[^18 F]2-FA-85380] as the compound, how does the pKd [4] read?
Its pKd is 9.84.

With `COc1ccccc1N1CCN(CCN(C(=O)c2ccc(F)cc2)c2ccccn2)CC1` [[^18 F]MPPF] as the compound, how does the pKd [5] read?
Its pKd is 8.48.

With `CCCN(CCC)CCc1ccc(OC)c(OCCc2ccccc2)c1` [[^11C]NE100] as the compound, how does the pKd [6] read?
Its pKd is 8.92.

With `Cc1ccc(N2CCN(C)CC2)c2oc(C(=O)Nc3ccc(N4CCOCC4)cc3)cc(=O)c12` [[^11C]AZ10419369] as the compound, how does the pKd [7] read?
The pKd was 9.43.

Which “fu,brain” value [8] does the source give for `CCCN(CCC)CCc1ccc(O[11CH3])c(OCCc2ccccc2)c1` [[^11C]NE100] here?
Its value is 0.03.

What about the “V u,brain” value [9] of the same compound?
Its value is 96 mL/g brain.

What about the “BP ND” value [10] of the same compound?
The value was 0.1.

With `CCCN1CCO[C@@H]2c3cc(O)ccc3CCC21` (some centres unmarked) [[^11C]PHNO] as the compound, how does the pKd [11] read?
Its pKd is 9.25.
